The values below are quoted from earlier work in patent publication US8193207B2, “Lactam compounds and methods of using the same” (Incyte Corporation, priority 2005, dated 2012).

The data set addresses T1, 11βHSD1 in the eye (Homo sapiens, UniProt P28845).
T1 construct: host or cells: eye tissue (non-pigmented epithelial cells) of healthy volunteers, in vivo
The settings on record: healthy volunteers; after seven days of carbenoxolone treatment.

T1 sequence (P28845 whole entry): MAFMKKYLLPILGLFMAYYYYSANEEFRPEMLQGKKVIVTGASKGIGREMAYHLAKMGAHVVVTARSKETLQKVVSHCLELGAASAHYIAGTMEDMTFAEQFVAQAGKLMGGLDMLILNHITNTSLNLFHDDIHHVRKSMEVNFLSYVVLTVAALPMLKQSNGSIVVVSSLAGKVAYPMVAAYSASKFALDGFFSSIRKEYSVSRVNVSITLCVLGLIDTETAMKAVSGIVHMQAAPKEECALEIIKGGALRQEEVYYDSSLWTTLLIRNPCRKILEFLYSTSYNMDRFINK

In the case of `CC1(C)[C@@H](OC(=O)CCC(=O)O)CC[C@]2(C)[C@H]3C(=O)C=C4[C@@H]5C[C@@](C)(C(=O)O)CC[C@]5(C)CC[C@@]4(C)[C@]3(C)CC[C@@H]12` [carbenoxolone], the IOP reduction was 18%.
